Columns and labels:
human D2R/β-arrestin [1] = molecular target: T1, human D2R/β-arrestin (Homo sapiens (Human), UniProt P14416); test: β-Arrestin agonist assay (PathHunter); format: cell-based; conditions: CHO-K1 cell line expressing human D2R/β-arrestin
Description: (§1) The assays can be performed using proper detection reagents either prepared using routine methods known in the art or commercially available (e.g., PathHunter® β-Arrestin Detecting Kit (DiscoveRX)). Cells are grown to the necessary confluence and then detached. The cells are then centrifuged, washed, resuspended, and seeded into a container (e.g., 384-well plate). The cells are incubated (e.g., at 37° C., 5% CO2) for the appropriate period of time (e.g., 24 hours), before various compounds (e.g., a compound of the invention or a control compound) are added to the cells. After incubation of the cells with the compounds, detection reagents (e.g., a buffer containing Emerald II: Galactor-Star as provided DiscoveRX) are added to the cells. The read-out (e.g., luminescence, or fluorescence) is detected using standard equipment.
The detection reagent (9.6 μL, Buffer:Emerald II:Galactor-Star in a 19:5:1 ratio, i.e., 14.06 mL:3.7 mL:0.74 mL=18.5 mL) was then added to the agonist plates.

human D2R/β-arrestin [2] = molecular target: T1, human D2R/β-arrestin; test: Gi/cAMP agonist assay (Lance Ultra cAMP, Forskolin); format: cell-based; conditions: CHO-K1 cell line expressing human D2R/β-arrestin
Description: as §1, with “PE Lance Ultra cAMP kit (TRF0263)).” for “PathHunter® β-Arrestin Detecting Kit (DiscoveRX)).”, “Afterwards, cAMP inducing agents (e.g., Forskolin) are added to and incubated with” for “After incubation of”, “before” for “with the compounds,”, “cAMP antibody, such” for “buffer containing Emerald II: Galactor-Star”, “ULight-anti-cAMP solution)” for “provided DiscoveRX)”, “Read-out” for “The read-out”
Compounds were pin-transferred (100 nL) to the cells, and incubated for 10 min. at 37° C. […] Eu-cAMP tracer solution (100, PerkinElmer, […] in 17.64 ml kit buffer) and ULight-anti-cAMP solution (100, 120 μL antibody in 17.88 ml kit buffer) was then added to each well.

human D2R/β-arrestin [3] = molecular target: T1, human D2R/β-arrestin; test: cell-based; conditions: β-arrestin Antagonist, CHO-K1 cell line expressing human D2R/β-arrestin; quinpirole used as agonist
human D2R/β-arrestin [4] = molecular target: T1, human D2R/β-arrestin; test: cell-based; conditions: cAMP Antagonist, CHO-K1 cell line expressing human D2R/β-arrestin; quinpirole used as agonist

T1 sequence (P14416 whole entry): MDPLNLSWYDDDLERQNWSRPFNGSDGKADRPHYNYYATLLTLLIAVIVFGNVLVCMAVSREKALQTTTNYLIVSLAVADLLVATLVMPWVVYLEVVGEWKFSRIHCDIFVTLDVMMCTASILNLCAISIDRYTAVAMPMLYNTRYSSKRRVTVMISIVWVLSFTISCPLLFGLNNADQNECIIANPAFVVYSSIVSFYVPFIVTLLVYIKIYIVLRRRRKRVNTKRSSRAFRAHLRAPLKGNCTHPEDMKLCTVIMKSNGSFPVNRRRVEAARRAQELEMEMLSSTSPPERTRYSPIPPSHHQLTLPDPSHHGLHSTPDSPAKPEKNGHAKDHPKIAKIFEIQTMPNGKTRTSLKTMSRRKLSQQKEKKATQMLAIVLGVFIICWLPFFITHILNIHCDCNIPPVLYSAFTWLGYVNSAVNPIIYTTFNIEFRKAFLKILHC

| EC50 (human D2R/β-arrestin [1]) | EC50 (human D2R/β-arrestin [2]) | IC50 (human D2R/β-arrestin [3]) | IC50 (human D2R/β-arrestin [4]) | SMILES |
| --- | --- | --- | --- | --- |
| > 30000 nM | 100 to 1000 nM | 100 to 1000 nM | > 30000 nM | O=C(NC(c1ccc(F)cc1)c1ccccn1)C1CCN(CCOc2cc(F)ccc2F)CC1 (stereo not drawn) [Compound 57, 1-(2-(2,5-difluorophenoxy)ethyl)-N-((4-fluorophenyl)(pyridin-2-yl)methyl) piperidine-4-carboxamide] |
| 100 to 1000 nM | < 100 nM | 1000 to 10000 nM | > 30000 nM | O=C(NC(c1ccc2c(c1)OC(F)(F)O2)c1ccccn1)C1CCN(CCOc2ccc(F)cc2F)CC1 (stereo not drawn) [Compound 130, N-((2,2-difluorobenzo[d][1,3]dioxol-5-yl)(pyridin-2-yl)methyl)-1-(2-(2,4-difluorophenoxy)ethyl)piperidine-4-carboxamide] |
| > 30000 nM | 100 to 1000 nM | 1000 to 10000 nM | > 30000 nM | O=C(NC(c1ccc(Cl)cc1)c1ccccn1)C1CCN(CCOc2ccc(Cl)cc2)CC1 (stereo not drawn) [Compound 2, 1-(2-(4-chlorophenoxy)ethyl)-N-((4-chlorophenyl)(pyridine-2-yl)methyl) piperidine-4-carboxamide] |
| > 30000 nM | < 100 nM | 100 to 1000 nM | > 30000 nM | O=C(NC(c1ccc(Cl)cc1)c1ccccn1)C1CCN(CCOc2cccc(Cl)c2)CC1 (stereo not drawn) [Compound 1, 1-(2-(3-chlorophenoxy)ethyl)-N-((4-chlorophenyl)(pyridin-2-yl)methyl)piperidine-4-carboxamide] |
| > 30000 nM | 1000 to 10000 nM | 1000 to 10000 nM | > 30000 nM | O=C(NC(c1ccccn1)c1ccccc1Cl)C1CCN(CCOc2ccccc2)CC1 (stereo not drawn) [Compound 24] |
| > 30000 nM | 10000 to 30000 nM | 1000 to 10000 nM | 1000 to 10000 nM | COc1cccc(C(NC(=O)C2CCN(CCOc3ccc(F)cc3F)CC2)c2ccccn2)c1 (stereo not drawn) [Compound 145, 1-(2-(2,4-difluorophenoxy)ethyl)-N-((3-methoxyphenyl)(pyridin-2-yl)methyl)piperidine-4-carboxamide] |
| > 30000 nM | 100 to 1000 nM | 100 to 1000 nM | > 30000 nM | CN(CC1CCN(CCOc2ccccc2F)CC1)C(c1ccc2c(c1)OCO2)c1ccccn1 (stereo not drawn) [Compound 138, 1-(benzo[d][1,3]dioxol-5-yl)-N-((1-(2-(2-fluorophenoxy)ethyl)piperidin-4-yl)methyl)-N-methyl-1-(pyridin-2-yl)methanamine] |
| > 30000 nM | < 100 nM | 1000 to 10000 nM | > 30000 nM | O=C(NC1CCN(CCOc2ccccc2)CC1)C(c1ccc(Cl)cc1)c1ccccn1 (stereo not drawn) [Compound 126, 2-(4-chlorophenyl)-N-(1-(2-phenoxyethyl)piperidin-4-yl)-2-(pyridin-2-yl)acetamide] |
| 100 to 1000 nM | 1000 to 10000 nM | 100 to 1000 nM | > 30000 nM | Fc1ccccc1OCCN1CCC(CN(CC(F)(F)F)C(c2ccc(Cl)cc2)c2ccccn2)CC1 (single isomer, unassigned) [Compound 136a, N-((4-chlorophenyl)(pyridin-2-yl)methyl)-2,2,2-trifluoro-N-((1-(2-(2-fluorophenoxy)ethyl)piperidin-4-yl)methyl)ethan-1-amine] |
| > 30000 nM | > 30000 nM | 10000 to 30000 nM | 1000 to 10000 nM | COc1cccc(C(NC(=O)C2CCN(CCOc3ccc(F)cc3F)CC2)c2ccccn2)c1 (single isomer, unassigned) [Compound 145a, 1-(2-(2,4-difluorophenoxy)ethyl)-N-((3-methoxyphenyl)(pyridin-2-yl)methyl)piperidine-4-carboxamide] |
| > 30000 nM | 1000 to 10000 nM | 1000 to 10000 nM | 1000 to 10000 nM | O=C(NC(c1ccc(Cl)cc1)c1ccccn1)C1CCN(CC2COc3ccccc3O2)CC1 (stereo not drawn) [Compound 140, N-((4-chlorophenyl)(pyridin-2-yl)methyl)-1-((2,3-dihydrobenzo[b][1,4]dioxin-2-yl)methyl)piperidine-4-carboxamide] |
| > 30000 nM | > 30000 nM | 100 to 1000 nM | 100 to 1000 nM | COc1cccc(C(NC(=O)C2CCN(CCOc3ccccc3Cl)CC2)c2ccccn2)c1 (stereo not drawn) [Compound 21, 1-(2-(2-chlorophenoxy)ethyl)-N-((3-methoxyphenyl)(pyridin-2-yl)methyl) piperidine-4-carboxamide] |
| > 30000 nM | > 30000 nM | < 100 nM | < 100 nM | CN(CC1CCN(CCOc2ccccc2C(F)(F)F)CC1)C(c1ccc(Cl)cc1)c1ccccn1 (stereo not drawn) [Compound 73] |
| > 30000 nM | < 100 nM | 100 to 1000 nM | 100 to 1000 nM | O=C1CCc2ccc(OCCCCN3CCCN(c4cccc(Cl)c4Cl)CC3)nc2N1 [UNC9975, reference compound] |
| > 30000 nM | 100 to 1000 nM | 100 to 1000 nM | > 30000 nM | Clc1ccc(C(NCC2CCN(CCOc3ccccc3)CC2)c2ccccn2)cc1 (single isomer, unassigned) [Compound 114b, 1-(4-chlorophenyl)-N-((1-(2-phenoxyethyl)piperidin-4-yl)methyl)-1-(pyridin-2-yl)methanamine] |
| > 30000 nM | < 100 nM | 100 to 1000 nM | 1000 to 10000 nM | COc1cccc(C(c2ccccn2)N(C)CC2CCN(CCOc3ccccc3F)CC2)c1 (stereo not drawn) [Compound 77, N-((1-(2-(2-fluorophenoxy)ethyl)piperidin-4-yl)methyl)-1-(3-methoxyphenyl)-N-methyl-1-(pyridin-2-yl)methanamine] |
| > 30000 nM | 100 to 1000 nM | 1000 to 10000 nM | 1000 to 10000 nM | Fc1ccc(C(NCC2CCN(CCOc3ccccc3)CC2)c2ccccn2)cc1 (single isomer, unassigned) [Compound 78a, 1-(4-fluorophenyl)-N-((1-(2-phenoxyethyl)piperidin-4-yl)methyl)-1-(pyridin-2-yl)methanamine] |
| > 30000 nM | < 100 nM | 1000 to 10000 nM | > 30000 nM | O=C(NC(c1ccccc1)c1ccccn1)C1CCN(CCOc2ccccc2)CC1 (stereo not drawn) [Compound 113, 1-(2-phenoxyethyl)-N-(phenyl(pyridin-2-yl)methyl)piperidine-4-carboxamide] |
| > 30000 nM | 1000 to 10000 nM | < 100 nM | < 100 nM | Fc1ccccc1OCCN1CCC(CN(CC(F)(F)F)C(c2ccc(Cl)cc2)c2ccccn2)CC1 (stereo not drawn) [Compound 136, N-((4-chlorophenyl)(pyridin-2-yl)methyl)-2,2,2-trifluoro-N-((1-(2-(2-fluorophenoxy)ethyl)piperidin-4-yl)methyl)ethan-1-amine] |
| > 30000 nM | 10000 to 30000 nM | 1000 to 10000 nM | 1000 to 10000 nM | O=C(NC(c1ccc(Cl)cc1)c1ccc(F)cn1)C1CCN(CCOc2ccccc2F)CC1 (single isomer, unassigned) [Compound 92b, N-((4-chlorophenyl)(5-fluoropyridin-2-yl)methyl)-1-(2-(2-fluorophenoxy)ethyl)piperidine-4-carboxamide] |
| > 30000 nM | 10000 to 30000 nM | 1000 to 10000 nM | 100 to 1000 nM | COc1cccc(OCCN2CCC(C(=O)NC(c3ccc(Cl)cc3)c3ccccn3)CC2)c1 (stereo not drawn) [Compound 12, N-((4-chlorophenyl) (pyridin-2-yl)methyl)-1-(2-(3-methoxyphenoxy)ethyl) piperidine-4-carboxamide] |
| < 100 nM | < 100 nM | 100 to 1000 nM | > 30000 nM | CC(C)N(CC1CCN(CCOc2ccccc2F)CC1)C(c1ccc(Cl)cc1)c1ccccn1 (single isomer, unassigned) [Compound 133b, N-((4-chlorophenyl)(pyridin-2-yl)methyl)-N-((1-(2-(2-fluorophenoxy)ethyl)piperidin-4-yl)methyl)propan-2-amine] |

| SMILES | EC50 (human D2R/β-arrestin [1]) | EC50 (human D2R/β-arrestin [2]) | IC50 (human D2R/β-arrestin [3]) | IC50 (human D2R/β-arrestin [4]) |
| --- | --- | --- | --- | --- |
| COc1cccc(C(NC(=O)C2CCN(CCOc3ccccc3F)CC2)c2ccccn2)c1 (stereo not drawn) [Compound 22, 1-(2-(2-fluorophenoxy)ethyl)-N-((3-methoxyphenyl)(pyridin-2-yl)methyl) piperidine-4-carboxamide] | > 30000 nM | > 30000 nM | 100 to 1000 nM | 100 to 1000 nM |
| O=C(NC(c1ccc(Cl)cc1)c1ccccn1)C1CCN(CCOc2cccc(F)c2)CC1 (stereo not drawn) [Compound 4] | > 30000 nM | < 100 nM | 100 to 1000 nM | > 30000 nM |

From patent publication US10752588B2 (The Broad Institute, Inc., priority 2014, dated 2020)
